Measurements reported in ChEMBL document CHEMBL1124973 (J Med Chem, 1990).

How the values were obtained:
[1] = target: T1, Muscarinic acetylcholine receptor (Rattus norvegicus) (UniProt P08482+P08483+P08485+P08911+P10980)
Description: In vitro binding affinity against muscarinic acetylcholine receptor from rat cortical homogenates using [3H]N-methylscopolamine as radioligand

[2] = target: T1, Muscarinic acetylcholine receptor (Rattus norvegicus); remark: listed apart in the source
Description: In vitro binding affinity against muscarinic acetylcholine receptor from rat cortical homogenates using [3H]oxotremorine-M radioligand

[3] = pKa value was measured; assay type: physicochemical
[4] = target: T1, Muscarinic acetylcholine receptor (Rattus norvegicus); test: The selectivity ratio of Kapp of NMS/OXO -M; assay type: protein assay

Q: What does the source list for `Cc1noc(C2CCCCN(C)C2)n1` (stereo not given)?
A: K app [1]: 18 µM; K app [2]: 0.73 µM

Q: Which K app [1] does the source give for `C[N+](C)(C)CCOC(N)=O` here?
A: 22 µM

Q: What about the K app [2] of the same compound?
A: 0.0049 µM

Q: Which results are given for `Cc1noc(C2CC3CCC2NC3)n1` (stereo in doubt; 22a)?
A: K app [1]: 1.1 µM; K app [2]: 0.0032 µM

Q: Which results are given for `Cc1noc(C2CC3CCC2N(C)C3)n1` (stereo in doubt; 23b)?
A: K app [1]: 29 µM; K app [2]: 0.95 µM

Q: With `Cc1noc(C2CN3CCC2C3)n1` (stereo in doubt; 15a) as the compound, how does the K app [1] read?
A: 0.1 µM

Q: And the K app [2]?
A: 9e-05 µM

Q: What does the source list for `CN1CCN(C)C(c2nc(N)no2)C1` (stereo not given)?
A: pKa [3]: 6; K app [1]: > 50 µM; K app [2]: > 14 µM

Q: Which K app [1] does the source give for `Cc1noc(C2=CCCNC2)n1` here?
A: 2.4 µM

Q: What about the K app [2] of the same compound?
A: 0.0016 µM

Q: With `Cc1noc(C2CC3CCC2NC3)n1` (stereo in doubt; 22b) as the compound, how does the K app [1] read?
A: 5.2 µM

Q: What about the K app [2] of the same compound?
A: 0.0025 µM

Q: For `Cc1noc(C2CN3CCC2CC3)n1` (stereo not given), which K app [1] is on record?
A: 0.44 µM

Q: What about the K app [2] of the same compound?
A: 0.00096 µM

Q: Which K app [1] does the source give for `Nc1noc(C2CN3CCC2C3)n1` (stereo in doubt; 16b) here?
A: 1.6 µM

Q: What about the K app [2] of the same compound?
A: 0.0015 µM

Q: With `Nc1noc(C2CN3CCC2C3)n1` (stereo in doubt; 16a) as the compound, how does the K app [1] read?
A: 0.031 µM

Q: What about the K app [2] of the same compound?
A: < 4.3e-05 µM

Q: With `Nc1noc(C2CN3CCCC2C3)n1` (stereo in doubt; 17b) as the compound, how does the K app [1] read?
A: 1.8 µM

Q: And the K app [2]?
A: 0.003 µM

Q: With `Nc1noc(C2=CCCNC2)n1` as the compound, how does the K app [1] read?
A: 3.3 µM

Q: And the K app [2]?
A: 0.0017 µM

Q: Which results are given for `Cc1noc(C[N+](C)(C)C)n1`?
A: K app [1]: 3.6 µM; K app [2]: 0.0014 µM

Q: Which K app [1] does the source give for `Cc1noc(C2CCN(C)C2)n1` (stereo not given) here?
A: 27 µM

Q: And the K app [2]?
A: 0.024 µM

Q: For `Nc1noc(C2CN3CCCC2C3)n1` (stereo in doubt; 17a), which K app [1] is on record?
A: 0.77 µM

Q: And the K app [2]?
A: 0.00067 µM

Q: For `CN1CCC=C(c2nc(N)no2)C1`, which K app [1] is on record?
A: 2.8 µM

Q: What about the K app [2] of the same compound?
A: 0.0026 µM

Q: With `Nc1noc(C2CN3CCC2CC3)n1` (stereo not given) as the compound, how does the K app [1] read?
A: 0.6 µM

Q: And the K app [2]?
A: 0.00047 µM

Q: Which results are given for `Cc1noc(C2CC3CCC2N(C)C3)n1` (stereo in doubt; 23a)?
A: K app [1]: 8.9 µM; K app [2]: 0.3 µM

Q: Which pKa [3] does the source give for `Nc1noc(C2CNCCN2)n1` (stereo not given) here?
A: 7.1

Q: And the Ratio [4]?
A: > 100

Q: And the K app [1]?
A: > 50 µM

Q: What about the K app [2] of the same compound?
A: 0.45 µM

Q: For `Nc1noc(C2CCNC2)n1` (stereo not given), which K app [1] is on record?
A: 21 µM

Q: And the K app [2]?
A: 0.04 µM

Q: Which pKa [3] does the source give for `Cc1noc(C2CN(C)CCN2)n1` (stereo not given) here?
A: 6.2

Q: What about the Ratio [4] of the same compound?
A: > 6.6

Q: And the K app [1]?
A: > 50 µM

Q: What about the K app [2] of the same compound?
A: 7.6 µM

Q: Which K app [1] does the source give for `CN1CCC(c2nc(N)no2)C1` (stereo not given) here?
A: 17 µM

Q: And the K app [2]?
A: 0.01 µM

Q: Which pKa [3] does the source give for `Cc1noc(C2CNCCN2)n1` (stereo not given) here?
A: 7.1

Q: What about the K app [1] of the same compound?
A: > 50 µM

Q: And the K app [2]?
A: 0.64 µM

Q: For `CN1CCCC(c2nc(N)no2)C1` (stereo not given), which K app [1] is on record?
A: 53 µM

Q: And the K app [2]?
A: 0.24 µM

Q: What does the source list for `Cc1noc(CN(C)C)n1`?
A: pKa [3]: 5.6; K app [1]: > 50 µM; K app [2]: 3.3 µM

Q: With `Cc1noc(C2CN3CCN2CC3)n1` (stereo not given) as the compound, how does the pKa [3] read?
A: 6

Q: And the K app [1]?
A: 36 µM

Q: And the K app [2]?
A: 0.44 µM

Q: With `Nc1noc(C2CN3CCN2CC3)n1` (stereo not given) as the compound, how does the pKa [3] read?
A: 6.3

Q: And the K app [1]?
A: > 50 µM

Q: What about the K app [2] of the same compound?
A: 0.13 µM

Q: With `Cc1noc(C2=CCCN(C)C2)n1` as the compound, how does the K app [1] read?
A: 2.1 µM

Q: What about the K app [2] of the same compound?
A: 0.0054 µM

Q: Which results are given for `Cc1noc(C2CN3CCC2C3)n1` (stereo in doubt; 15b)?
A: K app [1]: 3.6 µM; K app [2]: 0.0021 µM

Q: Which results are given for `Cc1noc(C2CCCN(C)C2)n1` (stereo not given)?
A: K app [1]: 54 µM; K app [2]: 0.43 µM

Q: What does the source list for `CN1CCNC(c2nc(N)no2)C1` (stereo not given)?
A: pKa [3]: 6.2; Ratio [4]: > 5.5; K app [1]: > 50 µM; K app [2]: 9.1 µM
